Results reported in PubChem BioAssay (NCI).
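Cells were grown in 96-well plates and exposed to each compound for 48 hours at five concentrations; endpoints were interpolated linearly between bracketing concentrations, or set to the highest concentration if not reached. GI50: concentration for 50% inhibition of growth. TGI: total growth inhibition.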

Tests used:
Assay in all cases: NCI anticancer screen, dose series, 48 h
[1] = test system: 786-0 renal
[2] = test system: A498 renal
[3] = test system: A549 NSCLC
[4] = test system: ACHN renal
[5] = test system: BT-549 breast
[6] = test system: CAKI-1 renal
[7] = test system: CCRF-CEM leukemia
[8] = test system: COLO 205 colon
[9] = test system: DU-145 prostate
[10] = test system: EKVX NSCLC
[11] = test system: HCC-2998 colon
[12] = test system: HCT-116 colon
[13] = test system: HCT-15 colon
[14] = test system: HL-60(TB) leukemia
[15] = test system: HOP-62 NSCLC
[16] = test system: HOP-92 NSCLC
[17] = test system: HS 578T breast
[18] = test system: HT29 colon
[19] = test system: IGROV1 ovarian
[20] = test system: K-562 leukemia
[21] = test system: KM12 colon
[22] = test system: LOX IMVI melanoma
[23] = test system: M14 melanoma
[24] = test system: MALME-3M melanoma
[25] = test system: MCF7 breast
[26] = test system: MDA-MB-231 breast
[27] = test system: MDA-MB-435
[28] = test system: MOLT-4 leukemia
[29] = test system: NCI-H226 lung
[30] = test system: NCI-H23 lung
[31] = test system: NCI-H460 lung
[32] = test system: NCI-H522 lung
[33] = test system: NCI/ADR-RES ovarian
[34] = test system: OVCAR-3 ovarian
[35] = test system: OVCAR-4 ovarian
[36] = test system: OVCAR-5 ovarian
[37] = test system: OVCAR-8 ovarian
[38] = test system: PC-3 prostate
[39] = test system: RXF 393 renal
[40] = test system: SF-268 CNS
[41] = test system: SF-295 CNS
[42] = test system: SF-539 CNS
[43] = test system: SK-MEL-2 melanoma
[44] = test system: SK-MEL-28 melanoma
[45] = test system: SK-MEL-5 melanoma
[46] = test system: SK-OV-3 ovarian
[47] = test system: SN12C renal
[48] = test system: SNB-19 CNS
[49] = test system: SNB-75 CNS
[50] = test system: SR leukemia
[51] = test system: SW-620 colon
[52] = test system: T-47D breast
[53] = test system: TK-10 renal
[54] = test system: U251 CNS
[55] = test system: UACC-257 melanoma
[56] = test system: UACC-62 melanoma
[57] = test system: UO-31 renal

With `CCCNNC(=O)c1ccc(-c2ccc(NC(=O)CCCCCCC(=O)N[C@H](C(=O)N3C[C@H](O)C[C@H]3C(=O)N[C@@H](C)c3ccc(-c4scnc4C)cc3)C(C)(C)C)cc2)cc1` as the compound, how does the GI50 [1] read?
The GI50 was 5.02 µM.

And the TGI [1]?
The TGI was > 100 µM.

What about the GI50 [2] of the same compound?
The GI50 was 1.41 µM.

And the TGI [2]?
Its TGI is 4.36 µM.

What about the GI50 [3] of the same compound?
Its GI50 is > 95.1 µM.

And the TGI [3]?
The TGI was > 100 µM.

And the GI50 [4]?
The GI50 was > 100 µM.

And the TGI [4]?
Its TGI is > 100 µM.

And the GI50 [5]?
The GI50 was 5.29 µM.

And the TGI [5]?
Its TGI is > 100 µM.

What about the GI50 [6] of the same compound?
Its GI50 is 7.41 µM.

What about the TGI [6] of the same compound?
The TGI was > 100 µM.

What about the GI50 [7] of the same compound?
Its GI50 is 0.357 µM.

What about the TGI [7] of the same compound?
The TGI was > 100 µM.

And the GI50 [8]?
The GI50 was 0.785 µM.

What about the TGI [8] of the same compound?
The TGI was 3.25 µM.

What about the GI50 [9] of the same compound?
Its GI50 is 2.01 µM.

And the TGI [9]?
The TGI was > 100 µM.

What about the GI50 [10] of the same compound?
The GI50 was > 36.6 µM.

And the TGI [10]?
The TGI was > 100 µM.

What about the GI50 [11] of the same compound?
Its GI50 is 2.05 µM.

What about the TGI [11] of the same compound?
The TGI was 11.1 µM.

And the GI50 [12]?
Its GI50 is 0.41 µM.

What about the TGI [12] of the same compound?
The TGI was 5.28 µM.

And the GI50 [13]?
Its GI50 is > 100 µM.

What about the TGI [13] of the same compound?
Its TGI is > 100 µM.

And the GI50 [14]?
Its GI50 is 0.394 µM.

And the TGI [14]?
The TGI was > 100 µM.

And the GI50 [15]?
The GI50 was 2.46 µM.

What about the TGI [15] of the same compound?
Its TGI is > 100 µM.

What about the GI50 [16] of the same compound?
Its GI50 is 0.258 µM.

What about the TGI [16] of the same compound?
The TGI was 2.14 µM.

What about the GI50 [17] of the same compound?
The GI50 was 1.91 µM.

What about the TGI [17] of the same compound?
The TGI was > 100 µM.

What about the GI50 [18] of the same compound?
Its GI50 is 0.893 µM.

What about the TGI [18] of the same compound?
The TGI was > 100 µM.

What about the GI50 [19] of the same compound?
The GI50 was 0.442 µM.

And the TGI [19]?
Its TGI is > 100 µM.

And the GI50 [20]?
Its GI50 is 0.524 µM.

And the TGI [20]?
The TGI was > 100 µM.

What about the GI50 [21] of the same compound?
Its GI50 is 3.34 µM.

What about the TGI [21] of the same compound?
The TGI was > 100 µM.

What about the GI50 [22] of the same compound?
The GI50 was 0.0387 µM.

What about the TGI [22] of the same compound?
The TGI was 1.08 µM.

What about the GI50 [23] of the same compound?
The GI50 was 2.86 µM.

And the TGI [23]?
Its TGI is > 100 µM.

And the GI50 [24]?
Its GI50 is 0.457 µM.

And the TGI [24]?
Its TGI is > 20.3 µM.

And the GI50 [25]?
The GI50 was 0.407 µM.

What about the TGI [25] of the same compound?
Its TGI is > 100 µM.

What about the GI50 [26] of the same compound?
The GI50 was 1.37 µM.

What about the TGI [26] of the same compound?
Its TGI is > 65.1 µM.

What about the GI50 [27] of the same compound?
The GI50 was 0.848 µM.

And the TGI [27]?
Its TGI is > 39.3 µM.

And the GI50 [28]?
The GI50 was 0.41 µM.

And the TGI [28]?
Its TGI is > 100 µM.

And the GI50 [29]?
Its GI50 is 9.28 µM.

And the TGI [29]?
The TGI was > 100 µM.

What about the GI50 [30] of the same compound?
The GI50 was 2.22 µM.

And the TGI [30]?
Its TGI is > 100 µM.

What about the GI50 [31] of the same compound?
Its GI50 is 2.63 µM.

What about the TGI [31] of the same compound?
The TGI was > 100 µM.

And the GI50 [32]?
The GI50 was 1.12 µM.

And the TGI [32]?
The TGI was > 100 µM.

What about the GI50 [33] of the same compound?
Its GI50 is > 100 µM.

What about the TGI [33] of the same compound?
Its TGI is > 100 µM.

And the GI50 [34]?
The GI50 was 0.917 µM.

And the TGI [34]?
Its TGI is 12.7 µM.

And the GI50 [35]?
The GI50 was > 100 µM.

And the TGI [35]?
Its TGI is > 100 µM.

And the GI50 [36]?
The GI50 was 1.88 µM.

What about the TGI [36] of the same compound?
Its TGI is > 100 µM.

And the GI50 [37]?
The GI50 was 2.98 µM.

And the TGI [37]?
Its TGI is > 100 µM.

What about the GI50 [38] of the same compound?
The GI50 was 1.25 µM.

What about the TGI [38] of the same compound?
The TGI was > 100 µM.

And the GI50 [39]?
The GI50 was 0.465 µM.

And the TGI [39]?
Its TGI is 2.37 µM.

And the GI50 [40]?
The GI50 was 3.63 µM.

And the TGI [40]?
Its TGI is > 100 µM.

What about the GI50 [41] of the same compound?
The GI50 was 5.97 µM.

What about the TGI [41] of the same compound?
The TGI was > 100 µM.

What about the GI50 [42] of the same compound?
The GI50 was 2.05 µM.

What about the TGI [42] of the same compound?
Its TGI is > 100 µM.

And the GI50 [43]?
Its GI50 is 2.7 µM.

And the TGI [43]?
Its TGI is > 100 µM.

And the GI50 [44]?
The GI50 was 0.599 µM.

What about the TGI [44] of the same compound?
Its TGI is > 100 µM.

And the GI50 [45]?
Its GI50 is 2.08 µM.

What about the TGI [45] of the same compound?
The TGI was 8.47 µM.

What about the GI50 [46] of the same compound?
The GI50 was 5.66 µM.

And the TGI [46]?
The TGI was > 100 µM.

What about the GI50 [47] of the same compound?
The GI50 was 4.21 µM.

What about the TGI [47] of the same compound?
Its TGI is > 100 µM.

And the GI50 [48]?
The GI50 was 2.62 µM.

What about the TGI [48] of the same compound?
The TGI was > 47.6 µM.

And the GI50 [49]?
The GI50 was 1.8 µM.

What about the TGI [49] of the same compound?
Its TGI is > 100 µM.

What about the GI50 [50] of the same compound?
The GI50 was 0.386 µM.

And the TGI [50]?
The TGI was > 100 µM.

And the GI50 [51]?
Its GI50 is 1.28 µM.

And the TGI [51]?
The TGI was 9.26 µM.

And the GI50 [52]?
Its GI50 is 0.345 µM.

And the TGI [52]?
The TGI was > 100 µM.

What about the GI50 [53] of the same compound?
The GI50 was 1.8 µM.

And the TGI [53]?
The TGI was > 100 µM.

And the GI50 [54]?
Its GI50 is 1.03 µM.

And the TGI [54]?
The TGI was 8.46 µM.

And the GI50 [55]?
The GI50 was 0.845 µM.

What about the TGI [55] of the same compound?
The TGI was > 100 µM.

What about the GI50 [56] of the same compound?
Its GI50 is 1.44 µM.

What about the TGI [56] of the same compound?
The TGI was 6.94 µM.

And the GI50 [57]?
Its GI50 is > 100 µM.

And the TGI [57]?
The TGI was > 100 µM.
